Test [1] relates to Threonyl-tRNA synthetase (Staphylococcus aureus). Nature of the test: Inhibitory activity against cognate Staphylococcus aureus threonyl tRNA synthetase at 300 uM.
Test [2] deals with Histidyl-tRNA synthetase (Staphylococcus aureus). Nature of the test: Inhibitory activity against cognate Staphylococcus aureus Histidyl-tRNA synthetase at 300 uM.

Inhibition data for two molecules are collected here from ChEMBL document CHEMBL1133279, “Aminoalkyl adenylate and aminoacyl sulfamate intermediate analogues differing greatly in affinity for their cognate Staphylococcus aureus aminoacyl tRNA synthetases” (Bioorg Med Chem Lett, 2000).

In general, inhibition refers to the drop in the measured response relative to a control, in per cent.

In turn, `C[C@@H](O)[C@H](N)COP(=O)(O)OC[C@H]1O[C@@H](n2cnc3c(N)ncnc32)[C@H](O)[C@@H]1O` had an inhibition in test [1] of 60%.

Consider `Nc1ncnc2c1ncn2[C@@H]1O[C@H](COP(=O)(O)OC[C@@H](N)Cc2c[nH]cn2)[C@@H](O)[C@H]1O`, for which, in test [2], the inhibition came to 20%.
